Experimental data: patent US20210244721A1, “SMALL MOLECULE ENTEROVIRUS INHIBITORS AND USES THEREOF” (priority 2020, published 2021)
Like-named read-outs stand apart in the source and are kept apart here.

What was measured:
[1] = system: EV-A71 US/AK/16-19516; experiment: CPE assay, EV-A71 US/AK in RD cells; assay type: cell-based; conditions: Enterovirus A, EVA71
[2] = system: CVB3; experiment: CPE assay, CVB3 in Vero C1008 cells; assay type: cell-based, coxsackievirus B3 (CVB3); conditions: Enterovirus B
[3] = system: EV-A71 Tainan/4643/98; experiment: CPE assay, EV-A71 Tainan in RD cells; assay type: cell-based; conditions: Enterovirus A
[4] = Cytotoxicity in Vero C1008 cells; conditions: African green monkey
[5] = system: EV-D68 US/KY/14-18953 virus; experiment: CPE assay, EV-D68 US/KY/14-18953 in RD cells; assay type: cell-based, Enterovirus D68 (EV-D68)
[6] = system: influenza B virus B/Brisbane/60/2008 (Victoria); experiment: Plaque assay, influenza B virus; assay type: cell-based; conditions: 10 μM
Experimental: (§1) Plaque assay was performed using the condition described previously (see, Wang, Y.; et al., J. Med. Chem. 2018, 61, 1074-1085). […] Oseltamivir carboxylate was included as a positive control and was tested at 200 nM.

[7] = system: EV-D68 viral capsid protein VP1; experiment: VP1 expression by immunofluorescence imaging and western blot; assay type: cell-based, Enterovirus D68 (EV-D68); conditions: for VP1 protein expression: 1 μM, US/KY/14-18953 MOI=1, 9 hpi, immunofluorescence imaging and western blot
Experimental: The EV-D68 2C protein is a highly conserved viral protein that plays multiple functions in genome replication. It has been implicated in RNA replication, membrane rearrangements, encapsidation, and uncoating (see, Van der Linden, L.; et al., Viruses 2015, 7, 4529-4562). Inhibition of viral 2C protein is expected to inhibit viral RNA and protein synthesis.
Total proteins were extracted at 9 hpi using RAPI lysis buffer [50 mM Tris (pH 8.0), 1% NP-40, 0.1% SDS, 150 mM NaCl, 0.5% Sodium deoxycholate, 5 mM EDTA, 10 mM NaF, 10 mM NaPPi, […] 1 mM PMSF]. Equal amount of extracted total proteins were separated by electrophoresis and transferred to a polyvinylidene difluoride (PVDF) membrane. Viral protein VP1 or host GAPDH was recognized by rabbit anti-VP1 (GeneTex: GTX132313; 1:3,000 dilution) or mouse anti-GAPDH antibody (EMD Millipore: MAB374; 1:3,000 dilution), respectively, followed by detection using Horse radish peroxidase (HRP)-conjugated secondary antibody (ThermoFisher Scientific: 32430 or 656120; 1:3,000 dilutions) and Supersignal West Femto substrate (ThermoFisher Scientific).
At 9 hpi, infected cells were fixed with 4% formaldehyde for 10 min followed by permeabilization with 0.2% Triton X-100 for another 10 min. After blocking with 10% bovine serum, cells were stained with rabbit anti-VP1 antibody (GeneTex: GTX132313) and followed by staining with anti-rabbit secondary antibody conjugated to Alexa-488 (ThermoFisher Scientific). Nucleus were stained with 300 nM DAPI (ThermoFisher Scientific) after secondary antibodies incubation. Fluorescent images were acquired using a Leica SP5-II spectral Confocal Microscope (Leica).

[8] = system: sodium channels; experiment: Sodium flux assay in DRG neurons; conditions: rat DRG neurons, veratridine
Experimental: In this assay, rat dorsal root ganglia (DRG) neurons were incubated with various concentrations of testing compounds. Sodium channels were then activated by the sodium channel agonist veratridine. The resulting sodium flux was measured indirectly by quantifying the sodium channel triggered calcium flux, which was measured by a calcium-specific fluorescence dye (FIG. 4).
Dorsal root ganglion neurons were prepared as previously described^27 and were loaded for 30 minutes at 3TC with 3 μM Fura-2AM (Cat #F1221, Thermo Fisher, stock solution prepared at 1 mM in DMSO, 0.02% pluronic acid, Cat #P-3000MP, Life technologies) to follow changes in intracellular calcium ([Ca^2+]c) in a standard bath solution containing 139 mM NaCl, 3 mM KCl, 0.8 mM MgCl2, 1.8 mM CaCl2, 10 mM Na HEPES, pH 7.4, 5 mM glucose exactly as previously described^28 Fluorescence imaging was performed with an inverted microscope, NikonEclipseTi-U (Nikon Instruments Inc., Melville, N.Y.), using objective Nikon Fluor 4X and a Photometrics cooled CCD camera Cool SNAP ES^2 (Roper Scientific, Tucson, Ariz.) controlled by Nis Elements software (version 4.20, Nikon Instruments). […] Fluorescence was recorded through a 505-nm dichroic mirror at 535±25 nm. […] The changes in [Ca^2+]c were monitored by following a ratio of F340/F380, calculated after subtracting the background from both channels. […]

[9] = system: influenza A virus A/California/07/2009 (H1N1); experiment: Plaque assay, influenza A virus; assay type: cell-based; conditions: 10 μM
Experimental: as §1

[10] = system: A172 cells; experiment: Cytotoxicity in A172 cells
Experimental: (§2) The cytotoxicity of each compound was determined using the neutral red cell viability assay. The assay was performed under similar conditions (incubation temperature, time, and media) as the CPE, but excluded viral infection. Data acquisition and analysis (CC50) was performed similarly to the antiviral CPE assay, and all values are from triplicate experiments.

[11] = system: SH-SY5Y cells; experiment: Cytotoxicity in SH-SY5Y cells
Experimental: as §2

[12] = system: RD cells; conditions: human, 3 days
[13] = system: EV-D68 US/MO/14-18947; experiment: CPE assay, EV-D68 US/MO/14-18947 in RD cells; conditions: Enterovirus D, EVD68, RD, EV-D68 US/MO/14-18947, RD cells
[14] = molecular target: T1, CVB3 2C protein (Coxsackievirus B3, UniProt P03313); experiment: Thermal shift assay (differential scanning fluorimetry); assay type: binding
T1 construct: CVB3 Nancy 2C (amino acids 37 to 329) protein; His tag with TEV site (inferred from the pET28a(+)-TEV vector and Ni-NTA purification); made in house; host or cells: E. coli Rosetta 2(DE3)

[15] = system: HeLa; experiment: Cytotoxicity in HeLa cells
Experimental: as §2

[16] = system: A549; experiment: Cytotoxicity in A549 cells
Experimental: as §2

[17] = CVB3, Vero C1008 cells, read-out: EC50
[18] = EVA71, EV-A71 Tainan, RD cells, read-out: EC50
[19] = Enterovirus D, EVD68, RD, against five different strains of EV-D68 viruses (summary), read-out: EC50
[20] = EV-D68 US/KY/14-18953, RD cells, CPE assay
[21] = EV-D68 US/KY/14-18953, RD cells, CPE assay, read-out: EC50

T1 sequence (P03313 1137-1429): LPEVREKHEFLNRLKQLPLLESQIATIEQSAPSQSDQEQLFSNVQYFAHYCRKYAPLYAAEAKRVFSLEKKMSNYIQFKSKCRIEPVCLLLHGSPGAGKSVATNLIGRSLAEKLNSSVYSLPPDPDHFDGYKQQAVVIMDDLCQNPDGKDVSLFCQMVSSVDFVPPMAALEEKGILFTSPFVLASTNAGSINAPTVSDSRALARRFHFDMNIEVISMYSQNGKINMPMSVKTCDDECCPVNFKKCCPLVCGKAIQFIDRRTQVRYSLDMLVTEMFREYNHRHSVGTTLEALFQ

NCCNC(=O)c1cc(-c2cccs2)nc2ccccc12 [drawing 193]
EC50 [1]: > 30 µM | EC50 [2, 17]: 0.6 µM | EC50 [3, 18]: 38.3 µM

CC(CN(C)C)NC(=O)c1cc(-c2cccs2)nc2ccccc12 (stereo not drawn) [drawing 190]
EC50 [1]: 8.8 µM | EC50 [2, 17]: 0.4 µM | EC50 [3, 18]: 7.9 µM

CNCCC(Oc1ccc(C(F)(F)F)cc1)c1ccccc1 (stereo not drawn)
CC50 at 3 days [4]: 11 µM

CN(C)CCNC(=O)c1cc(-c2ccccc2)nc2ccccc12 [Compound 10a, N-[2-(dimethylamino)ethyl]-2-phenylquinoline-4-carboxamide]
EC50 ([5]; Enterovirus D, EVD68, RD, Table 6, EV-D68 US/KY/14-18953, RD cells): 0.4 ± 0.2 µM | EC50 [5, 19]: < 1 µM | inhibition in plaque assay [6]: no inhibition | VP1 protein expression ([7]; RD cells): completely blocked | inhibition of sodium current conductance ([8]; 2 μM to 50 μM): minimal to no effect | inhibition in plaque assay [9]: no inhibition

CCCCOc1cc(C(=O)NCCN(CC)CC)c2ccccc2n1 [dibucaine, reference compound]
inhibition in plaque assay [6]: no inhibition | VP1 protein expression ([7]; RD cells): no effect | fluorescent signal of VP1 (immunofluorescence) ([7]; 3 μM, 9 hpi, compared to DMSO control): significantly reduced | VP1 expression (western blot) ([7]; 3 μM, RD cells, 9 hpi): nearly completely inhibited | inhibition of sodium current conductance ([8]; 20 μM and 50 μM): potently inhibited | inhibition in plaque assay [9]: no inhibition

CN(C)CCNC(=O)c1cc(-c2cccs2)nc2ccccc12 [drawing 133]
CC50 [10]: 73.8 µM | CC50 [11]: 136 µM

CC(CN(C)C)NC(=O)c1cc(-c2ccccc2)nc2ccccc12 (stereo not drawn) [drawing 183]
EC50 [1]: 11.7 µM | EC50 [2, 17]: 2 µM | EC50 [3, 18]: 18.3 µM

CN(C)CCNC(=O)c1cc(-c2cccs2)nc2ccccc12 [drawing 189]
EC50 [5, 20]: 0.04 µM | EC50 [1]: > 10 µM | EC50 [2, 17]: 0.07 µM | EC50 [3, 18]: 2.9 µM

CN(C)CCNC(=O)c1cc(-c2cccs2)nc2ccccc12 [Compound 12a, N-[2-(dimethylamino)ethyl]-2-(thiophen-2-yl)quinoline-4-carboxamide]
EC50 ([5]; EV-D68 US/KY/14-18953, RD cells, CPE assay, listed as 6bf): 0.04 µM | EC50 ([5]; Enterovirus D, EVD68, RD, against five different strains of EV-D68 viruses (summary)): < 1 µM | inhibition in plaque assay [6]: no inhibition | VP1 protein expression ([7]; RD cells): completely blocked | inhibition in plaque assay [9]: no inhibition

COc1ccc(CC(C)NCC(O)c2ccc(O)c(NC=O)c2)cc1 (stereo not drawn)
CC50 at 3 days [4]: > 300 µM | EC50 ([2]; CVB3, Vero C1008): 9.9 µM | EC50 ([3]; EVA71, RD): > 100 µM

CCCCOc1cc(C(=O)NCCN(CC)CC)c2ccccc2n1 [drawing 195]
CC50 at 3 days ([4]; Vero C1008 cells): 64.4 µM | EC50 [2, 17]: 1.3 µM | EC50 [3, 18]: > 10 µM

Cc1ccc2c(c1)c1c3n2CCNC3CCC1 (stereo not drawn) [drawing 10]
CC50 [12]: 19 ± 1.6 µM

CNCCNC(=O)c1cc(-c2ccccc2)nc2ccccc12 [drawing 182]
EC50 [1]: > 10 µM | EC50 [2, 17]: 1.1 µM | EC50 [3, 18]: 7.8 µM

CN(C)CCNC(=O)c1cc(-c2ccc(F)cc2)nc2ccccc12 [drawing 185]
EC50 [13]: 0.05 µM | EC50 [5, 21]: 0.1 µM | EC50 [1]: 2.3 µM | EC50 [2, 17]: 0.06 µM | EC50 [3, 18]: 2.2 µM

CN(C)CCNC(=O)c1cc(-c2ccc(F)cc2F)nc2ccccc12 [drawing 188]
EC50 [1]: > 10 µM | EC50 [2, 17]: 0.4 µM | EC50 [3, 18]: 7.9 µM

CNCCNC(=O)c1cc(-c2cccs2)nc2ccccc12 [drawing 192]
EC50 [13]: 0.2 µM | EC50 [5, 21]: 0.3 µM | EC50 [1]: 11.5 µM | EC50 [2, 17]: 0.3 µM | EC50 [3, 18]: 8.4 µM

O=C(NCCN1CCCC1)c1cc(-c2cccs2)nc2ccccc12 [Compound 12c, N-[2-(pyrrolidin-1-yl)ethyl]-2-(thiophen-2-yl)quinoline-4-carboxamide]
EC50 [5, 19]: < 1 µM | inhibition in plaque assay [6]: no inhibition | VP1 protein expression ([7]; RD cells): completely blocked | inhibition in plaque assay [9]: no inhibition

CCCCOc1cc(C(=O)NCCN(CC)CC)c2ccccc2n1 [drawing 131]
CC50 [10]: > 30 µM | CC50 [11]: > 30 µM

CNCCNC(=O)c1cc(-c2ccc(F)cc2)nc2ccccc12 [Compound 6aw, 2-(4 fluorophenyl)-N-[2-(methylamino)ethyl]quinoline-4-carboxamide]
thermal stability of CVB3 2C ([14]; three concentrations (10, 30 or 100 μM)): increased the thermal stability of CVB3 2C in a concentration dependent manner

CN(C)CCNC(=O)c1cc(-c2ccccc2)nc2ccccc12 [drawing 132]
CC50 [10]: 88.4 µM | CC50 [11]: > 300 µM

N=C(N)N [guanidine, reference compound]
Tm shift ([14]; 1 mM, CVB3 2C 4.5 μM): 1.77 °C

NCCNC(=O)c1cc(-c2ccc(F)cc2)nc2ccccc12 [drawing 187]
EC50 [13]: 0.3 µM | EC50 [5, 21]: 0.4 µM | EC50 [1]: 14 µM | EC50 [2, 17]: 0.4 µM | EC50 [3, 18]: 9 µM

CCCCOc1cc(C(=O)NCCN(CC)CC)c2ccccc2n1 [drawing 127]
CC50 [15]: 36 µM | CC50 [16]: 37.5 µM

CNCCNC(=O)c1cc(-c2ccc(F)cc2)nc2ccccc12 [drawing 186]
EC50 [5, 20]: 0.2 µM | EC50 [2, 17]: 0.2 µM | EC50 [3, 18]: 3.1 µM

O=C(NCCN1CCCC1)c1cc(-c2cccs2)nc2ccccc12 [drawing 134]
CC50 [10]: 65.4 µM | CC50 [11]: 93.3 µM

CN(C)CCNC(=O)c1cc(-c2ccccc2)nc2ccccc12 [drawing 128]
CC50 [15]: 68.7 µM | EC50 [5, 21]: 0.4 µM | CC50 [16]: 121 µM

CN1CCC(NC(=O)c2cc(-c3cccs3)nc3ccccc23)C1 (stereo not drawn) [drawing 191]
EC50 [1]: 8 µM | EC50 [2, 17]: 0.2 µM | EC50 [3, 18]: 6.3 µM

CN(C)CCNC(=O)c1cc(-c2ccco2)nc2ccccc12 [drawing 194]
EC50 [1]: 20.9 µM | EC50 [2, 17]: 1.2 µM | EC50 [3, 18]: 30.9 µM

CN(C)CCNC(=O)c1cc(-c2cccs2)nc2ccccc12 [drawing 129]
CC50 [15]: 51.2 µM | EC50 [5, 20]: 0.04 µM | CC50 [16]: 98.8 µM
